According to patent publication US10487054B2, “Therapeutic compounds” (REGENTS OF THE UNIVERSITY OF MINNESOTA, priority 2017, dated 2019):

Tests used:
JB6 P+ cells = assay: Western blot of SUV-induced TOPK downstream signaling; format: cell-based, mouse
Protocol: The cells were cultured, treated for 4 h with different concentrations of compound 1 and then exposed to SUV (60 kJ UVA/m^2 and 2.9 kJ UVB/m^2), followed by an additional 15-minute incubation. Cells were harvested and the levels of phosphorylated and total proteins were determined by Western blot analysis with specific antibodies as indicated. […] The cells were cultured and treated with different concentrations of compound 1 for 24 h. Cells were harvested and the levels of phosphorylated and total proteins were determined by Western blot analysis with specific antibodies as indicated. […] For the luciferase assay, JB6 P+ cells stably transfected with an AP-1 luciferase reporter plasmid were cultured. […] Luciferase activity was measured and AP-1 activity is expressed relative to control cells without SUV treatment. […] Luciferase and 3-galactosidase activities were measured using reagents included in the reporter assay system (right). […] Significant differences were evaluated using one-way ANOVA and the asterisks (*) indicate a significant effect (*, p<0.05; **, p<0.001; ***, p<0.0001). […]
(§1) HaCaT or JB6 P+ cells (1×10^6) were cultured in 10-cm dishes for 24 h and then the medium was replaced with 0.1% FBS medium for 24 h. […] Protein concentration in cell lysates was determined using a protein assay kit (Bio-Rad Laboratories, Hercules, Calif.). […]

HaCaT cells = assay: as above; format: cell-based, human
Protocol: The cells were cultured, treated for 4 h with different concentrations of compound 1 and then exposed to SUV (60 kJ UVA/m^2 and 2.9 kJ UVB/m^2), followed by an additional 15-minute incubation. Cells were harvested and the levels of phosphorylated and total proteins were determined by Western blot analysis with specific antibodies as indicated. […] The cells were cultured and treated with different concentrations of compound 1 for 24 h. Cells were harvested and the levels of phosphorylated and total proteins were determined by Western blot analysis with specific antibodies as indicated. […] For the luciferase assay, JB6 P+ cells stably transfected with an AP-1 luciferase reporter plasmid were cultured. After starvation for 24 h, cells were treated for 1 h with compound 1 (0, 1.25, 2.5, or 5 μM). Cells were then exposed to SUV (60 kJ UVA/m^2 and 2.9 kJ UVB/m^2) and harvested 3 h later. Luciferase activity was measured and AP-1 activity is expressed relative to control cells without SUV treatment. […] Knockdown of TOPK in A431 cell line (left). Stable control or TOPK knockdown cells were co-transfected with 100 ng of the AP-1 luciferase reporter plasmid and 50 ng of internal control […] plasmid. Cells were transfected using iMFectin poly DNA transfection reagent (GenDEPOT) according to the manufacturer's instructions. After 12 h of transfection, cells were incubated with the different concentrations of compound 1 for another 24 h. Luciferase and […] activities were measured using reagents included in the reporter assay system (right). Data are shown as mean values±S.D obtained from triplicate experiments. Significant differences were evaluated using one-way ANOVA and the asterisks (*) indicate a significant effect (*, p<0.05; **, p<0.001; ***, p<0.0001). […]
as §1

[1] = Absorbance scan by spectrophotometer; format: physicochemical
Protocol: Absorbance wavelengths of compound 1 were scanned using a Beckman DU®800 spectrophotometer.
In order to confirm whether compound 1 absorbs at UVA or UVB wavelengths, its ability to absorb SUV light between […] was examined. […] In addition, an anchorage-independent growth assay was performed to assess the effect of compound 1 on cell transformation. […] Similarly, cell proliferation was determined by a crystal violet staining assay.

O=C1Nc2ccc(C34CC5CC(CC(C5)C3)C4)cc2C1=NO [compound 1, 5-(adamantan-1-yl)-3-(hydroxyimino)indolin-2-one]
phosphorylated c-Jun protein levels (JB6 P+ cells; JB6 P+ cells exposed to SUV): significantly suppressed | phosphorylation of ERK1/2, p38, and JNKs (JB6 P+ cells; JB6 P+ cells, 4 h treatment then SUV (60 kJ UVA/m2 and 2.9 kJ UVB/m2)): markedly suppressed | phosphorylated c-Jun protein levels (HaCaT cells; HaCaT cells exposed to SUV): significantly suppressed | phosphorylation of ERK1/2, p38, and JNKs (HaCaT cells; HaCaT cells, 4 h treatment then SUV (60 kJ UVA/m2 and 2.9 kJ UVB/m2)): markedly suppressed | phosphorylated and total TOPK protein levels (HaCaT cells; Western blot, cell lines not specified in the sentence (FIG. 3A, 3B)): no significant changes | absorbance of UVA or UVB [1]: did not show significant absorbance of UVA or UVB | peak absorption ([1]; scanned between 250 and 320 nm): 259 nm | wavelength range of main light absorption ([1]; scanned between 250 and 320 nm): 250-275 nm
